Drawing on patent publication US20250163104A1, “MACROCYCLIC IMMUNOMODULATORS” (priority 2021, published 2025), this text covers IC50 for 13 molecules.

Like-named read-outs stand apart in the source and are kept apart here. Where a SMILES comes first, the peptide text is derived from it. Bridges are numbered along the chain shown (N, C = ends). [ ]: non-standard residue; d: D form. The star is where a group is joined. ξ: configuration not given here. Bip(3'-COOH) = N[C@@H](Cc1ccc(-c2cccc(C(=O)O)c2)cc1)C(=O)O; Phe(3-CF3) = N[C@@H](Cc1cccc(C(F)(F)F)c1)C(=O)O; Phe(4-COOH) = N[C@@H](Cc1ccc(C(=O)O)cc1)C(=O)O; Bip = N[C@@H](Cc1ccc(-c2ccccc2)cc1)C(=O)O; Phe(3-Cl) = N[C@@H](Cc1cccc(Cl)c1)C(=O)O; Phe(3-OMe) = COc1cccc(C[C@H](N)C(=O)O)c1; Phe(4-CN) = N#Cc1ccc(C[C@H](N)C(=O)O)cc1; Phe(3-Me) = Cc1cccc(C[C@H](N)C(=O)O)c1; Val(3-OH) = CC(C)(O)[C@H](N)C(=O)O; 2Pal = N[C@@H](Cc1ccccn1)C(=O)O; 4Pal = N[C@@H](Cc1ccncc1)C(=O)O; Cha = N[C@@H](CC1CCCCC1)C(=O)O; Cit = NC(=O)NCCC[C@H](N)C(=O)O; Ile(3ξ) = CCC(C)[C@H](N)C(=O)O; Thr(3ξ) = CC(O)[C@H](N)C(=O)O; dNle = CCCC[C@@H](N)C(=O)O; dOrn = NCCC[C@@H](N)C(=O)O; Carboxymethyl = O=C(O)C*; Nle = CCCC[C@H](N)C(=O)O; Orn = NCCC[C@H](N)C(=O)O; Pra = C#CC[C@H](N)C(=O)O; Dab = NCC[C@H](N)C(=O)O; Dap = NC[C@H](N)C(=O)O

In the test the target is T1, human PD-1 / PD-L1-Ig binding on Jurkat cell line over-expressing human PD-1 (Jurkat-PD-1) (Homo sapiens, UniProt Q15116).
T1 construct: expressed in transfected cells; host or cells: Jurkat
T1 sequence (Q15116 25-288): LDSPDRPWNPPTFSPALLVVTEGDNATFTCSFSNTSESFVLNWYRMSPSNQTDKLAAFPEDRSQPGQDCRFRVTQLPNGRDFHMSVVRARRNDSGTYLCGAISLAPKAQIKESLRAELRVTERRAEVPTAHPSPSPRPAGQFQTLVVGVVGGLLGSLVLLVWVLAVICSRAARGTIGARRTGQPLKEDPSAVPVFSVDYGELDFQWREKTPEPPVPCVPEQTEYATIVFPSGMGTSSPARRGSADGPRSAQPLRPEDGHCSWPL
Description: Jurkat-PD-1 Cell Binding High-Content Screening Assay (CBA). The test is classed as cell-based. Summed up: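 PE-PD-L1-Ig 20 nM final; cells in DMEM/10% FCS; cpd pre-incubation 2 h, 37° C; ligand 1 h; PFA fix + Hoechst 33342; high-content imaging read-out.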

[1] abbreviates: Jurkat-PD-1 cells, PE-labeled PD-L1-Ig 20 nM final; read-out: Jurkat HPD1_PDL1 IC50.

On to `C#CC[C@H](NC(=O)[C@H](CCN)NC(=O)[C@@H]1CSCC(=O)N[C@@H](CN)C(=O)N[C@@H](Cc2ccc(OCC(=O)O)cc2)C(=O)N[C@@H](CC(=O)O)C(=O)N[C@@H](Cc2cccc(C)c2)C(=O)N[C@@H](Cc2ccc(OCC(=O)O)cc2)C(=O)N[C@@H](Cc2ccc(-c3ccccc3)cc2)C(=O)N[C@@H](Cc2ccc(OCC(=O)O)cc2)C(=O)N[C@@H](CCCN)C(=O)N[C@H](CC(C)C)C(=O)N[C@@H](CCN)C(=O)N[C@@H](CC2CCCCC2)C(=O)N[C@@H](C(C)C)C(=O)N[C@@H](CO)C(=O)N1)C(N)=O` [Compound 1861] ({CH2CO}-[Dap]Y(Carboxymethyl)D[Phe(3-Me)]Y(Carboxymethyl)[Bip]Y(Carboxymethyl)[Orn][dL][Dab][Cha]VSC[Dab][Pra]-NH2; thioether N-14), for which, under setting [1], the IC50 came to 10.8 nM. Regarding `COc1cccc(C[C@@H]2NC(=O)[C@H](CC(=O)O)NC(=O)[C@H](Cc3ccc(OCC(=O)O)cc3)NC(=O)[C@H](Cc3ccccc3)NC(=O)CSC[C@@H](C(=O)N[C@@H](C)C(N)=O)NC(=O)[C@H]([C@@H](C)O)NC(=O)[C@H](C(C)C)NC(=O)[C@H](CC3CCCCC3)NC(=O)[C@H](CCN)NC(=O)[C@@H](CC(C)C)NC(=O)[C@H](CCCN)NC(=O)[C@H](CCC(=O)O)NC(=O)[C@H](Cc3ccc(-c4ccccc4)cc3)NC(=O)[C@H](C(C)C)NC2=O)c1` [Compound 1542] ({CH2CO}-FY(Carboxymethyl)D[Phe(3-OMe)]V[Bip]E[Orn][dL][Dab][Cha]VTCA-NH2; thioether N-14), the IC50 under setting [1] stood at 18.6 nM. For `CC(C)C[C@H]1NC(=O)[C@H](CCCN)NC(=O)[C@H](CCCNC(N)=O)NC(=O)[C@H](Cc2ccc(-c3ccccc3)cc2)NC(=O)[C@H](C(C)C)NC(=O)[C@H](Cc2c[nH]c3ccccc23)NC(=O)[C@H](CC(=O)O)NC(=O)[C@H](Cc2ccc(OCC(=O)O)cc2)NC(=O)[C@H](CN)NC(=O)CSC[C@@H](C(=O)N[C@@H](C)C(N)=O)NC(=O)[C@H]([C@@H](C)O)NC(=O)[C@H](C(C)C)NC(=O)[C@H](Cc2ccc(C#N)cc2)NC(=O)[C@H](CCN)NC1=O` [Compound 1366] ({CH2CO}-[Dap]Y(Carboxymethyl)DWV[Bip][Cit][Orn][dL][Dab][Phe(4-CN)]VTCA-NH2; thioether N-14), the IC50 under setting [1] is 858 nM.

Regarding `CC(C)C[C@@H]1NC(=O)[C@H](CCN)NC(=O)[C@@H](CC(C)C)NC(=O)[C@@H](CCCN)NC(=O)[C@H](C(C)C)NC(=O)[C@H](Cc2ccc(-c3ccccc3)cc2)NC(=O)[C@H](C(C)C)NC(=O)[C@H](Cc2c[nH]c3ccccc23)NC(=O)[C@H](CC(=O)O)NC(=O)[C@H](Cc2ccc(O)cc2)NC(=O)[C@H](CC(N)=O)NC(=O)CSC[C@@H](C(=O)N[C@@H](C)C(N)=O)NC(=O)[C@H]([C@@H](C)O)NC(=O)[C@H](C(C)C)NC1=O` [Compound 1027] ({CH2CO}-NYDWV[Bip]V[dOrn][dL][Dab]LVTCA-NH2; thioether N-14), the IC50 under setting [1] is 19.5 nM. For `CC(C)C[C@H]1NC(=O)[C@H](CCCN)NC(=O)[C@H](CCC(=O)O)NC(=O)[C@H](Cc2ccc(-c3ccccc3)cc2)NC(=O)[C@H](C(C)C)NC(=O)[C@H](Cc2ccccn2)NC(=O)[C@H](CC(=O)O)NC(=O)[C@H](Cc2ccc(OCC(=O)O)cc2)NC(=O)[C@H](CN)NC(=O)CSC[C@@H](C(=O)N[C@@H](C)C(N)=O)NC(=O)[C@H]([C@@H](C)O)NC(=O)[C@H](C(C)C)NC(=O)[C@H](CC2CCCCC2)NC(=O)[C@H](CCN)NC1=O` [Compound 2154] ({CH2CO}-[Dap]Y(Carboxymethyl)D[2Pal]V[Bip]E[Orn][dL][Dab][Cha]VTCA-NH2; thioether N-14), under setting [1], the IC50 is 27.9 nM. On the same count and under the same terms, next, `CC(C)C[C@H]1NC(=O)[C@H](CCCN)NC(=O)[C@H](CCC(=O)O)NC(=O)[C@H](Cc2ccc(-c3ccccc3)cc2)NC(=O)[C@H](C(C)C)NC(=O)[C@H](Cc2cccc(Cl)c2)NC(=O)[C@H](CC(=O)O)NC(=O)[C@H](Cc2ccncc2)NC(=O)[C@H](Cc2ccc(OCC(=O)O)cc2)NC(=O)CSC[C@@H](C(=O)N[C@@H](C)C(N)=O)NC(=O)[C@H]([C@@H](C)O)NC(=O)[C@H](C(C)C)NC(=O)[C@H](CC2CCCCC2)NC(=O)[C@H](CCN)NC1=O` [Compound 1493] ({CH2CO}-Y(Carboxymethyl)[4Pal]D[Phe(3-Cl)]V[Bip]E[Orn][dL][Dab][Cha]VTCA-NH2; thioether N-14): 10.8 nM.

For `CCCC[C@H]1NC(=O)[C@H](CCCN)NC(=O)[C@H](CCC(=O)O)NC(=O)[C@H](Cc2ccc(-c3ccccc3)cc2)NC(=O)[C@H](C(C)C)NC(=O)[C@H](Cc2c[nH]c3ccccc23)NC(=O)[C@H](CC(=O)O)NC(=O)[C@H](Cc2ccncc2)NC(=O)[C@H](Cc2ccc(OCC(=O)O)cc2)NC(=O)CSC[C@@H](C(=O)N[C@@H](C)C(N)=O)NC(=O)[C@H]([C@@H](C)O)NC(=O)[C@H](C(C)C)NC(=O)[C@H](CC2CCCCC2)NC(=O)[C@H](CCN)NC1=O` [Compound 1451] ({CH2CO}-Y(Carboxymethyl)[4Pal]DWV[Bip]E[Orn][dNle][Dab][Cha]VTCA-NH2; thioether N-14), under setting [1], the IC50 is 10.3 nM. For `CCC(C)[C@@H]1NC(=O)[C@H](CC2CCCCC2)NC(=O)[C@H](CCN)NC(=O)[C@@H](CC(C)C)NC(=O)[C@H](CCCN)NC(=O)[C@H](C(C)CC)NC(=O)[C@H](Cc2ccc(-c3ccccc3)cc2)NC(=O)[C@H](C(C)CC)NC(=O)[C@H](Cc2c[nH]c3ccccc23)NC(=O)[C@H](CC(=O)O)NC(=O)[C@H](Cc2ccc(OCC(=O)O)cc2)NC(=O)[C@H](C(C)O)NC(=O)CSC[C@@H](C(=O)N2CCC[C@H]2C(N)=O)NC(=O)[C@H](CO)NC1=O` (stereo partly drawn) [Compound 2583] ({CH2CO}-[Thr(3ξ)]Y(Carboxymethyl)DW[Ile(3ξ)][Bip][Ile(3ξ)][Orn][dL][Dab][Cha][Ile(3ξ)]SCP-NH2; thioether N-14), the IC50 (read-out: Jurkat HPD1_PDL1 IC50; Jurkat-PD-1 cells, PE-labeled PD-L1-Ig 20 nM final) turned out to be 122 nM. Turning to `CC(C)C[C@H]1NC(=O)[C@H](CCCN)NC(=O)[C@H](CCCNC(N)=O)NC(=O)[C@H](Cc2ccc(-c3ccccc3)cc2)NC(=O)[C@H](C(C)C)NC(=O)[C@H](Cc2c[nH]c3ccccc23)NC(=O)[C@H](CC(=O)O)NC(=O)[C@H](Cc2ccc(-c3cccc(C(=O)O)c3)cc2)NC(=O)[C@H](CN)NC(=O)CSC[C@@H](C(=O)N[C@@H](C)C(N)=O)NC(=O)[C@H]([C@@H](C)O)NC(=O)[C@H](C(C)C)NC(=O)[C@H](CC2CCCCC2)NC(=O)[C@H](CCN)NC1=O` [Compound 2090] ({CH2CO}-[Dap][Bip(3'-COOH)]DWV[Bip][Cit][Orn][dL][Dab][Cha]VTCA-NH2; thioether N-14), the IC50 under setting [1] stood at 7.8 nM. On to `Cc1cccc(C[C@@H]2NC(=O)[C@H](CC(=O)O)NC(=O)[C@H](Cc3ccc(C(=O)O)cc3)NC(=O)[C@H](Cc3ccncc3)NC(=O)CSC[C@@H](C(=O)N[C@H](CC(N)=O)C(N)=O)NC(=O)[C@H](CO)NC(=O)[C@H](C(C)(C)O)NC(=O)[C@H](CC3CCCCC3)NC(=O)[C@H](CCN)NC(=O)[C@@H](CC(C)C)NC(=O)[C@H](CCCN)NC(=O)[C@H](Cc3ccc(C(=O)O)cc3)NC(=O)[C@H](Cc3ccc(-c4ccccc4)cc3)NC(=O)[C@H](Cc3ccc(OCC(=O)O)cc3)NC2=O)c1` [Compound 2655] ({CH2CO}-[4Pal][Phe(4-COOH)]D[Phe(3-Me)]Y(Carboxymethyl)[Bip][Phe(4-COOH)][Orn][dL][Dab][Cha][Val(3-OH)]SC[dN]-NH2; thioether N-14), for which, under setting [1], the IC50 is 110 nM. Still for that read-out and setting: next, `CCCC[C@@H]1NC(=O)CSC[C@@H](C(=O)N[C@@H](CCN)C(N)=O)NC(=O)[C@H](CO)NC(=O)[C@H](C(C)(C)O)NC(=O)[C@H](CC2CCCCC2)NC(=O)[C@H](CCN)NC(=O)[C@@H](CC(C)C)NC(=O)[C@H](CCCN)NC(=O)[C@H](Cc2ccc(C(=O)O)cc2)NC(=O)[C@H](Cc2ccc(-c3ccccc3)cc2)NC(=O)[C@H](Cc2ccc(C(=O)O)cc2)NC(=O)[C@H](Cc2cccc(C(F)(F)F)c2)NC(=O)[C@H](CC(=O)O)NC(=O)[C@H](Cc2ccc(OCC(=O)O)cc2)NC1=O` [Example 2713] ({CH2CO}-[Nle]Y(Carboxymethyl)D[Phe(3-CF3)][Phe(4-COOH)][Bip][Phe(4-COOH)][Orn][dL][Dab][Cha][Val(3-OH)]SC[Dab]-NH2; thioether N-14): 0.7 nM; `CC(C)C[C@H]1NC(=O)[C@H](CCCN)NC(=O)[C@H](Cc2cnc[nH]2)NC(=O)[C@H](Cc2ccc(-c3ccccc3)cc2)NC(=O)[C@H](C(C)C)NC(=O)[C@H](Cc2c[nH]c3ccccc23)NC(=O)[C@H](CC(=O)O)NC(=O)[C@H](Cc2ccc(OCC(=O)O)cc2)NC(=O)[C@H](Cc2ccccc2)NC(=O)CSC[C@@H](C(=O)N[C@@H](CC(N)=O)C(N)=O)NC(=O)[C@H](CO)NC(=O)[C@H](C(C)C)NC(=O)[C@H](CC2CCCCC2)NC(=O)[C@H](CCN)NC1=O` [Compound 2560] ({CH2CO}-FY(Carboxymethyl)DWV[Bip]H[Orn][dL][Dab][Cha]VSCN-NH2; thioether N-14): 9.4 nM. Same read-out and setting: for `CCCC[C@@H]1NC(=O)CSC[C@@H](C(=O)N[C@@H](CCN)C(N)=O)NC(=O)[C@H](CCC(=O)O)NC(=O)[C@H](C(C)(C)O)NC(=O)[C@H](CC2CCCCC2)NC(=O)[C@H](CCN)NC(=O)[C@@H](CC(C)C)NC(=O)[C@H](CCCN)NC(=O)[C@H](Cc2ccc(C(=O)O)cc2)NC(=O)[C@H](Cc2ccc(-c3ccccc3)cc2)NC(=O)[C@H](Cc2ccc(C(=O)O)cc2)NC(=O)[C@H](Cc2cccc(C)c2)NC(=O)[C@H](CC(=O)O)NC(=O)[C@H](Cc2ccc(OCC(=O)O)cc2)NC1=O` [Example 2714] ({CH2CO}-[Nle]Y(Carboxymethyl)D[Phe(3-Me)][Phe(4-COOH)][Bip][Phe(4-COOH)][Orn][dL][Dab][Cha][Val(3-OH)]EC[Dab]-NH2; thioether N-14) the value was 0.3 nM.
